In patent US20080293664A1, “Non-nucleoside reverse transcriptase inhibitors” (Roche Palo Alto LLC, priority 2007, published 2008):
Counter-ions that a name gives are not always drawn. Like-named read-outs stand apart in the source and are kept apart here.

Key:
[1] = system: HXB2-strain of HIV in MT4 cells; test: Antiviral assay: protection of HIV-infected MT4 cells from cell death (MTT); assay type: cell-based; conditions: read-out: Antiviral Assay IC50
Experimental: Antiviral Assay Method Anti-HIV antiviral activity was assessed using an adaptation of the method of Pawls et al. (J. Virol Methods 1988 20:309-321). The method is based on the ability of compounds to protect HIV-infected T lymphoblastoid cells (MT4 cells) from cell-death mediated by the infection. The endpoint of the assay was calculated as the concentration of compound at which the cell viability of the culture was preserved by 50% (‘50% inhibitory concentration’, IC50). The cell viability of a culture was determined by the uptake of soluble, yellow 3-[4,5-dimethylthiazol-2-yl]-2,5-diphenyltetrazolium bromide (MTT) and its reduction to a purple insoluble formazan salt. After solubilization, spectrophotometric methods were employed to measure the amount of formazan product. MT4 cells were prepared to be in logarithmic-phase growth and a total of 2×10^6 cells infected with the HXB2-strain of HIV at a multiplicity of 0.0001 infectious units of virus per cell in a total volume of between 200-500 microliters. […] When the formazan deposit was fully solubilized by further mixing, the absorbance (OD) of the cultures was measured at 540 nm and 690 nm wavelength (690 nm readings were used as blanks for artifacts between wells). The percent protection for each treated culture was then calculated from the equation: [formula] […]

[2] = target: HIV-1 Reverse Transcriptase (Human immunodeficiency virus type 1 group M subtype B, UniProt P03366); test: HIV-1 Reverse Transcriptase Assay (RNA-dependent DNA polymerase activity, SPA); assay type: biochemical; conditions: HIV-RT enzyme 1-3 nM, 30° C. for 30 min, 10% DMSO
Experimental: HIV-1 Reverse Transcriptase Assay
RNA-dependent DNA polymerase activity was measured using a biotinylated primer oligonucleotide and tritiated dNTP substrate. Newly synthesized DNA was quantified by capturing the biotinylated primer molecules on streptavidin coated Scintillation Proximity Assay (SPA) beads (Amersham). The sequences of the polymerase assay substrate were: 18nt DNA primer, 5′-Biotin/GTC CCT GTT CGG GCG CCA-3′; 47nt RNA template, 5′-GGGUCUCUCUGGUUAGACCACUCUAGCAGUGGCGCCCGAACAGGGAC-3′. The biotinylated DNA primer was obtained from the Integrated DNA Technologies Inc. and the RNA template was synthesized by Dharmacon. The DNA polymerase assay (final volume 50 μl) contained 32 nM biotinylated DNA primer, 64 nM RNA substrate, dGTP, dCTP, dTTP (each at 5 μM), 103 nM [^3H]-dATP (specific activity=[…]), in 45 mM Tris-HCl, pH 8.0, 45 mM NaCl, 2.7 mM Mg(CH3COO)2, 0.045% Triton X-100 w/v, 0.9 mM EDTA. The reactions contained 5 ul of serial compound dilutions in 100% DMSO for IC50 determination and the final concentrations of DMSO were 10%. Reactions were initiated by the addition of 30 μl of the HIV-RT enzyme (final concentrations of 1-3 nM). Protein concentrations were adjusted to provide linear product formation for at least 30 min of incubation. […] The beads were left to settle overnight and the SPA signals were counted in a 96-well top counter-NXT (Packard). […]

Question: Which results are given for N#Cc1cc(Cl)cc(C(=O)c2cc(Cl)ccc2OCc2n[nH]c3ncccc23)c1 [Compound I-2, 3-Chloro-5-[5-chloro-2-(1H-pyrazolo[3,4-b]pyridin-3-ylmethoxy)-benzoyl]-benzonitrile]?
Answer: IC50 ([1]; Human immunodeficiency virus 1, 120 h, MT4 cells infected with HXB2-strain of HIV, 5 days, MTT viability): 3.7 nM; melting point: 194.3 to 195.9 °C; IC50 [2]: 24.4 nM

Question: Which IC50 ([1]; Human immunodeficiency virus 1, HXB2, MT4, 120 h) does the source give for N#Cc1cc(Cl)cc(Oc2c(Cl)ccc(OCc3n[nH]c4ncccc34)c2F)c1 [Compound I-3, 3-Chloro-5-[6-chloro-2-fluoro-3-(1H-pyrazolo[3,4-b]pyridin-3-ylmethoxy)-phenoxy]-benzonitrile, trifluoroacetate salt] here?
Answer: 8 nM

Question: And the IC50 [2]?
Answer: 11 nM

Question: Which melting point does the source give for N#Cc1cc(Cl)cc(C(=O)c2c(CNc3n[nH]c4ncccc34)ccc(Br)c2F)c1 [Compound I-9] here?
Answer: 214 to 215 °C
